Test results taken from ChEMBL document CHEMBL1201862, “PubChem BioAssay data set” (2004).
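How tested: cells in 96-well plates exposed to compound for 48 hours at five concentrations. GI50 is the concentration that inhibits growth by half.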 The source made the active and inactive calls. Cut-off read from the data, not from the text of the source: active = GI50 up to about 1.1 µM and inactive = higher.

How the values were obtained:
Assay in all cases: NCI tumour cell line growth inhibition, 48 h
SK-MEL-5 = tested on: SK-MEL-5
K562 = tested on: K562
UO-31 = tested on: UO-31
RXF 393 = tested on: RXF 393
SR = tested on: SR
HCT-15 = tested on: HCT-15
SNB-75 = tested on: SNB-75
MDA-N = tested on: MDA-N
SK-MEL-28 = tested on: SK-MEL-28
MOLT-4 = tested on: MOLT-4
OVCAR-4 = tested on: OVCAR-4
CAKI-1 = tested on: CAKI-1
A549 = tested on: A549
TK-10 = tested on: TK-10
NCI-H522 = tested on: NCI-H522
HT-29 = tested on: HT-29
SN12C = tested on: SN12C
NCI/ADR-RES = tested on: NCI/ADR-RES
HOP-92 = tested on: HOP-92
786-0 = tested on: 786-0

SMILES | GI50 (SK-MEL-5) | GI50 (K562) | GI50 (UO-31) | GI50 (RXF 393) | GI50 (SR) | GI50 (HCT-15) [µM] | GI50 (SNB-75) | GI50 (MDA-N) | GI50 (SK-MEL-28) | GI50 (MOLT-4) | GI50 (OVCAR-4) | GI50 (CAKI-1) | GI50 (A549) | GI50 (TK-10) | GI50 (NCI-H522) | GI50 (HT-29) | GI50 (SN12C) | GI50 (NCI/ADR-RES) | GI50 (HOP-92) | GI50 (786-0)
O=c1cc(-c2ccccc2)oc2ccc(Cl)cc12 [6-CHLOROFLAVONE] | > 100 µM (inactive) | > 74.6 µM (inactive) | 37.4 µM (inactive) | 31.4 µM (inactive) | 20.7 µM (inactive) | > 100 | 26.8 µM (inactive) | > 41.4 µM (inactive) | > 65.6 µM (inactive) | > 74.6 µM (inactive) | > 44.3 µM (inactive) | > 62.1 µM (inactive) | > 100 µM (inactive) | 50 µM (inactive) | 64.3 µM (inactive) | > 100 µM (inactive) | > 69.8 µM (inactive) | 57.4 µM (inactive) | 22.8 µM (inactive) | 33.3 µM (inactive)
OCc1ccc2c(c1)CC1(C2)Cc2cc3c(cc2C1)CCC3 | 2.3 µM (inactive) | 0.585 µM (active) | 4.97 µM (inactive) | 2.58 µM (inactive) | 1.14 µM (inactive) | 2.92 | 2.26 µM (inactive) | 0.339 µM (active) | 8.3 µM (inactive) | 4.41 µM (inactive) | 17.4 µM (inactive) | 6.31 µM (inactive) | 8.47 µM (inactive) | 13 µM (inactive) | 3.52 µM (inactive) | 2.22 µM (inactive) | 2.45 µM (inactive) | 2.9 µM (inactive) | 8.99 µM (inactive) | 5.51 µM (inactive)
OC1(c2ccccc2)CC2CCC(C1)N2CCc1ccccc1 (stereo not given) | 13.7 µM (inactive) | 45.5 µM (inactive) | 28.1 µM (inactive) | > 100 µM (inactive) | > 100 µM (inactive) | 89.9 | > 100 µM (inactive) | 56.8 µM (inactive) | 68.4 µM (inactive) | 29.7 µM (inactive) | 72.8 µM (inactive) | 53.2 µM (inactive) | 49.8 µM (inactive) | > 100 µM (inactive) |  | 23.8 µM (inactive) | > 100 µM (inactive) | > 100 µM (inactive) | 43.8 µM (inactive) | > 100 µM (inactive)
Nc1nc(SCCc2ccccc2)c2nc[nH]c2n1 | 45.1 µM (inactive) | 48.1 µM (inactive) | 60.7 µM (inactive) | 60.4 µM (inactive) | 36.2 µM (inactive) | 37.2 | 33 µM (inactive) | 55.7 µM (inactive) | 58.9 µM (inactive) | 33.6 µM (inactive) | > 100 µM (inactive) | 61.9 µM (inactive) | > 100 µM (inactive) | 19.6 µM (inactive) | 66.2 µM (inactive) | 41.1 µM (inactive) | 39.4 µM (inactive) | 51.2 µM (inactive) | 76.6 µM (inactive) | 78.2 µM (inactive)
COC(=O)C1(CCC(C)=O)CCCCCC1=O (stereo not given) | > 100 µM (inactive) | > 100 µM (inactive) | > 100 µM (inactive) | > 100 µM (inactive) | > 100 µM (inactive) | > 100 | > 100 µM (inactive) | > 100 µM (inactive) | > 100 µM (inactive) | > 100 µM (inactive) | > 100 µM (inactive) | > 100 µM (inactive) | > 100 µM (inactive) | > 100 µM (inactive) | > 100 µM (inactive) | > 100 µM (inactive) | > 100 µM (inactive) | > 100 µM (inactive) | > 100 µM (inactive) | > 100 µM (inactive)
O=c1[nH]nc(-c2ccccc2)c2[nH]c3c4ccccc4ccc3c12 | 0.587 µM (active) | 0.279 µM (active) |  | 1.58 µM (inactive) | 0.251 µM (active) | 0.643 | 3.93 µM (inactive) | 0.199 µM (active) |  | 1.64 µM (inactive) | 1.76 µM (inactive) |  | 1.31 µM (inactive) | 2.17 µM (inactive) | 0.753 µM (active) | 0.459 µM (active) | 3.87 µM (inactive) | 0.379 µM (active) | 20.3 µM (inactive) | 2.1 µM (inactive)
O=[N+]([O-])c1ccccc1S(=O)(=O)c1cccc2c1NCCC2 | 19.7 µM (inactive) | 21.3 µM (inactive) | 47.4 µM (inactive) | 37.8 µM (inactive) | 48.2 µM (inactive) | 35 | 14.8 µM (inactive) | 28.1 µM (inactive) | 45.6 µM (inactive) | 21.5 µM (inactive) | > 100 µM (inactive) | 63.5 µM (inactive) | 31.9 µM (inactive) | > 100 µM (inactive) |  | 29.7 µM (inactive) | 86.7 µM (inactive) | 29 µM (inactive) | 32.7 µM (inactive) | > 100 µM (inactive)
COC(=O)c1ccc(C)cc1CC1Cc2ccc(C)cc2C1=O (stereo not given) | 7.29 µM (inactive) | 3.21 µM (inactive) | 19.9 µM (inactive) | 10.1 µM (inactive) | 3.05 µM (inactive) | 3.24 | 5.69 µM (inactive) | 1.75 µM (inactive) | 8.43 µM (inactive) | 5.68 µM (inactive) | 16.1 µM (inactive) | 7.13 µM (inactive) | 11 µM (inactive) | 13 µM (inactive) | 1.47 µM (inactive) | 3.47 µM (inactive) | 12.2 µM (inactive) | 2.59 µM (inactive) | 23 µM (inactive) | 13.7 µM (inactive)
O=c1oc2ccc(Cl)cc2cc1-c1cn2ccsc2n1 | 51.1 µM (inactive) | 33.5 µM (inactive) | 34.3 µM (inactive) | 45.8 µM (inactive) | 24.8 µM (inactive) | 36.1 | > 100 µM (inactive) | 46 µM (inactive) | > 100 µM (inactive) | 24.4 µM (inactive) | 33.4 µM (inactive) | 42.8 µM (inactive) | 38.4 µM (inactive) | > 100 µM (inactive) | 21 µM (inactive) | 52.8 µM (inactive) | 57 µM (inactive) | 61.1 µM (inactive) | 12.4 µM (inactive) | 58.5 µM (inactive)
CCOC(=O)c1c(SC(=O)c2ccc(OC)cc2)n(-c2ccccc2)c(=S)n(-c2ccccc2)c1=O |  | 42.5 µM (inactive) |  | 49.3 µM (inactive) | 29.9 µM (inactive) | 23.4 | > 100 µM (inactive) | > 100 µM (inactive) | > 100 µM (inactive) | 22.5 µM (inactive) | > 100 µM (inactive) | > 100 µM (inactive) | > 100 µM (inactive) | > 100 µM (inactive) | 49.4 µM (inactive) | 46.1 µM (inactive) | 76.9 µM (inactive) | > 100 µM (inactive) | > 100 µM (inactive) | 37.8 µM (inactive)
CCOC(=O)/C(C#N)=C/c1ccc(SCc2ccco2)c([N+](=O)[O-])c1 | > 100 µM (inactive) | > 100 µM (inactive) | > 100 µM (inactive) | > 100 µM (inactive) | > 100 µM (inactive) |  | > 100 µM (inactive) | > 100 µM (inactive) | > 100 µM (inactive) | > 100 µM (inactive) | > 100 µM (inactive) | > 100 µM (inactive) | > 100 µM (inactive) |  | > 100 µM (inactive) | > 100 µM (inactive) | > 100 µM (inactive) | > 100 µM (inactive) | > 100 µM (inactive) | > 100 µM (inactive)
CC1(C)/C(=N\Nc2ccc([N+](=O)[O-])cc2[N+](=O)[O-])C2CCC1C2 (stereo not given) | 4.2 µM (inactive) | > 100 µM (inactive) | > 100 µM (inactive) |  | > 100 µM (inactive) | > 100 | 3.34 µM (inactive) | > 100 µM (inactive) | > 100 µM (inactive) | > 100 µM (inactive) | 84.5 µM (inactive) | > 100 µM (inactive) | > 100 µM (inactive) | > 100 µM (inactive) | > 100 µM (inactive) | > 100 µM (inactive) | > 100 µM (inactive) | > 100 µM (inactive) | 93.8 µM (inactive) | 81.8 µM (inactive)
Cc1ccc(OCC2OC(n3cnc4c(Cl)nc(Cl)nc43)CC2Oc2ccc(C)cc2)cc1 (stereo not given) | 7.1 µM (inactive) |  |  |  | 2.49 µM (inactive) | 1.82 | 2.52 µM (inactive) | 1.93 µM (inactive) | 2.7 µM (inactive) | 1.94 µM (inactive) | 2.15 µM (inactive) | 1.57 µM (inactive) | 3.5 µM (inactive) | 11.2 µM (inactive) | 1.74 µM (inactive) | 1.57 µM (inactive) | 3.85 µM (inactive) | 1.97 µM (inactive) | 2.28 µM (inactive) | 14.5 µM (inactive)
Cc1cc(O)c(C=O)c2c1C(=O)Oc1c(CO)c(O)c3c(c1O2)C(O)OC3=O (stereo not given) [SLAZINIC ACID] | 34.3 µM (inactive) |  | 34.5 µM (inactive) | 87.5 µM (inactive) | 22.6 µM (inactive) | 55.2 | 24.1 µM (inactive) | 66.2 µM (inactive) | 91.8 µM (inactive) | 22.1 µM (inactive) | 27.5 µM (inactive) | 61.5 µM (inactive) | > 100 µM (inactive) | > 100 µM (inactive) | 42.3 µM (inactive) | > 100 µM (inactive) | > 100 µM (inactive) | 44.7 µM (inactive) | 50.6 µM (inactive) | > 100 µM (inactive)
COC(=O)CCCC(=O)O | > 100 µM (inactive) |  | > 100 µM (inactive) | > 100 µM (inactive) | > 100 µM (inactive) | > 100 | > 100 µM (inactive) | > 100 µM (inactive) | > 100 µM (inactive) | > 100 µM (inactive) | > 100 µM (inactive) | > 100 µM (inactive) | > 100 µM (inactive) | > 100 µM (inactive) | > 100 µM (inactive) | > 100 µM (inactive) | > 100 µM (inactive) | > 100 µM (inactive) | > 100 µM (inactive) | > 100 µM (inactive)
